This data set is described as follows: Water solubility determined spectroscopically (absorbance at 280 nm). Particulars: direct dissolution of powder in bidistilled water, centrifuged solutions, UV absorbance at 280 nm with calculated ε. Type of data set: physicochemical. The method, then:
Peptide solutions were prepared by direct dissolution of pure powders in bidistilled water. The analytical concentration of solutions was spectroscopically determined by absorbance on a UV–vis Thermo Fisher Scientific Inc. (Wilmington, Delaware, USA) Nanodrop 2000c spectrophotometer equipped with a 1.0 cm quartz cuvette (Hellma) using the molar absorptivity (ε) at 280 nm reported in Table 1. For each peptide, the ε was calculated using the formula ε(280)= [x·5500 + y·1215 + k·2630] [L·cm^–1·mol^–1], where x, y, and k were the numbers of W, Y, and Dopa residues, respectively. […] Hydrogel formation was triggered using the “solvent switch” method, which consists of the addition of water to a peptide stock solution (100 mg/mL in DMSO). The peptide concentration after water addition was 1.0 wt % (10.0 mg/mL).
To deeply investigate the molecular determinant that can positively or negatively affect the aggregation process, herein, we evaluated the impact generated by replacement of the Phe residue with the Trp (W) one. Trp was selected to assess the effect of a more sterically hindered residue containing the heteroaromatic indole group. On the other side, Tyr residues were replaced by Dopa, characterized by the catechol group in place of the phenol one. Using this design, two novel peptides [(WY)3 and (W-Dopa)3] and their N-PEGylated analogues [PEG8-(WY)3 and PEG8-(W-Dopa)3] were designed (Figure 1). The novel sequences were synthesized using a solid-phase approach, according to the Fmoc/tBu protocols on Rink amide MBHA resin. This support allows for obtaining amidation of the C-terminus. Due to the major steric hindrance of the Trp residue, the synthesis of these primary sequences was more difficult than the previously reported ones and required the employment of a DMF/NMP mixture as solvent. After purification, peptides were lyophilized and their identity was assessed by LC-MS (Figures S1–S4 and Table 1). The estimation of the peptide solubility was spectroscopically determined by recording the absorbance spectra (Figure S5) on the centrifuged peptide solutions. […] As expected, peptides derivatized with the PEG moiety are more soluble than their corresponding unPEGylated versions, thus confirming PEGylation as a helpful strategy to improve intrinsic water solubility of all-aromatic sequences.

Data on four compounds can be found in paper PMC10795196, “Self-Assembled Materials Based on Fully Aromatic Peptides: The Impact of Tryptophan, Tyrosine, and Dopa Residues” (Langmuir, 2024).

Converted amounts (≈) assume the structure as drawn. Non-standard residues stand in square brackets, D forms with d. Residues, ends and D or L forms follow the SMILES beside them. No end group written: not given here. Dopa = N[C@@H](Cc1ccc(O)c(O)c1)C(=O)O; AEEA = NCCOCCOCC(=O)O

For `NCCOCCOCC(=O)NCCOCCOCC(=O)NCCOCCOCC(=O)NCCOCCOCC(=O)N[C@@H](Cc1c[nH]c2ccccc12)C(=O)N[C@@H](Cc1ccc(O)cc1)C(=O)N[C@@H](Cc1c[nH]c2ccccc12)C(=O)N[C@@H](Cc1ccc(O)cc1)C(=O)N[C@@H](Cc1c[nH]c2ccccc12)C(=O)N[C@@H](Cc1ccc(O)cc1)C(N)=O` [PEG8-(WY)3] (H-[AEEA][AEEA][AEEA][AEEA]WYWYWY-NH2), the thermodynamic solubility (as a rule, solubility found after equilibrating the solid with the medium) was 3770 µg/mL (≈ 2.29 mM).

`NC(=O)[C@H](Cc1ccc(O)c(O)c1)NC(=O)[C@H](Cc1c[nH]c2ccccc12)NC(=O)[C@H](Cc1ccc(O)c(O)c1)NC(=O)[C@H](Cc1c[nH]c2ccccc12)NC(=O)[C@H](Cc1ccc(O)c(O)c1)NC(=O)[C@@H](N)Cc1c[nH]c2ccccc12` [(W-Dopa)3] (H-W[Dopa]W[Dopa]W[Dopa]-NH2): the solubility (thermodynamic) was 7610 µg/mL (≈ 6.84 mM).

For WYWYWY-NH2 [(WY)3], the thermodynamic solubility was 1150 µg/mL.

With `NCCOCCOCC(=O)NCCOCCOCC(=O)NCCOCCOCC(=O)NCCOCCOCC(=O)N[C@@H](Cc1c[nH]c2ccccc12)C(=O)N[C@@H](Cc1ccc(O)c(O)c1)C(=O)N[C@@H](Cc1c[nH]c2ccccc12)C(=O)N[C@@H](Cc1ccc(O)c(O)c1)C(=O)N[C@@H](Cc1c[nH]c2ccccc12)C(=O)N[C@@H](Cc1ccc(O)c(O)c1)C(N)=O` [PEG8-(W-Dopa)3] (H-[AEEA][AEEA][AEEA][AEEA]W[Dopa]W[Dopa]W[Dopa]-NH2), the solubility (thermodynamic) is 15000 µg/mL (≈ 8.86 mM).
